# Source: paper PMC11240139, “Exploring the antitumor potential of novel quinoline derivatives via tubulin polymerization inhibition in breast cancer; design, synthesis and molecular docking” (RSC Advances, 2024)
# “Also recorded” adds a separate entry of the source.
# Experiments:
# MDA-MB-231 cells = test: Cell cycle analysis by flow cytometry (PI); type: cell-based; details: MDA-MB-231, IC50 dose, 24 h; control 10.42%
# Protocol: Propidium Iodide Flow Cytometry Kit for Cell Cycle Analysis (Abcam) was used according to manufacturer's instructions. Briefly, MDA-MB 231 cells (2 × 10^5 cells) were seeded in 6-well plates and cultured for 24 h. […] Cells were collected, washed with PBS and centrifuged. Subsequently, the cells were re-suspended and fixed in 66% ethanol on ice for at least 2 h. The cells were stained with a working solution containing propidium iodide (PI) in the dark at 37 °C for 30 min. DNA content of the cells were measured by flow cytometry using FACSCalibur (BD Biosciences, Mountain View, CA). The data were analyzed using the CellQuest software (BD Biosciences).[21]
# tubulin = molecular target: T1, tubulin (Sus scrofa, UniProt P02550+P02554); test: Tubulin polymerization inhibition assay; type: biochemical
# T1 construct: purchased Cytoskeleton, USA
# Protocol: Tubulin polymerization inhibition assay was performed using Tubulin Polymerization Assay Kit (Cytoskeleton, USA). 2 mg mL^−1 tubulin was dissolved in 80 mM PIPES pH 6.9, 2.0 mM MgCl2, 0.5 mM EGTA, 1.0 mM GTP and 15% glycerol. A 96-well plate was warmed to 37 °C for 10 minutes. Serial dilutions of the test compounds were prepared. The assay components were mixed. Polymerization was monitored using a plate reader at 360 nm and emission at 420 nm at 37 °C every 1 min intervals for 60 min. A dose–response curve was generated and the IC50 for tubulin polymerization inhibition was calculated.
# [1] = tested on: β-tubulin mRNA in MDA-MB-231 cells; test: Tubulin expression assay (real-time PCR); type: cell-based; details: MDA-MB-231, IC50 dose, 48 h, normalized to β-actin
# Protocol: The cells were seeded in a six-well plate at a concentration of 3 × 10^5 cells per well. […] The cells were washed, collected and centrifuged at 2500 rpm for 15 min at 4 °C. The total RNA isolation kit (RNeasy extraction kit – QIAGEN) was used to isolate RNA according to the manufacturer's instructions.
# Gene expression of β-tubulin was determined using iScript One-Step RT-PCR kit with SYBR Green (BIORAD) according to the manufacturer protocol. Primers sequences used for qPCR are illustrated in (Table 5). The genes expression was normalized to β-actin as the housekeeping gene. The protocol used was cDNA synthesis for 10 min at 50 °C, iScript Reverse transcriptase inactivation for 5 min at 95 °C and PCR cycling and detection (30 to 45 cycles): 10 s at 95 °C and 30 s at 55 °C to 60 °C.
# T1 sequence (P02554 whole entry): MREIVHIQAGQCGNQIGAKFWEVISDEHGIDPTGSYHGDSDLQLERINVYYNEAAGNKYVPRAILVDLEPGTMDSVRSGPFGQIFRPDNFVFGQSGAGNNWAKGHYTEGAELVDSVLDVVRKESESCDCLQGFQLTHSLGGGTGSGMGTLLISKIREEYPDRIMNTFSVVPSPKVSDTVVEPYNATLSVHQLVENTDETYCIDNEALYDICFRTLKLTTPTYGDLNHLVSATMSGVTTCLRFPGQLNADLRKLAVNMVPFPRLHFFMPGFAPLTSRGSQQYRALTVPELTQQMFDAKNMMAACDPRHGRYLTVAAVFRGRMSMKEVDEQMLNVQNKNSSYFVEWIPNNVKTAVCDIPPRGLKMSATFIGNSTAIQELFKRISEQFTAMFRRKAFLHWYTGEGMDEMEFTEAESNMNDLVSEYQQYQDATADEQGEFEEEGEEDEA
# T1 sequence (P02550 whole entry): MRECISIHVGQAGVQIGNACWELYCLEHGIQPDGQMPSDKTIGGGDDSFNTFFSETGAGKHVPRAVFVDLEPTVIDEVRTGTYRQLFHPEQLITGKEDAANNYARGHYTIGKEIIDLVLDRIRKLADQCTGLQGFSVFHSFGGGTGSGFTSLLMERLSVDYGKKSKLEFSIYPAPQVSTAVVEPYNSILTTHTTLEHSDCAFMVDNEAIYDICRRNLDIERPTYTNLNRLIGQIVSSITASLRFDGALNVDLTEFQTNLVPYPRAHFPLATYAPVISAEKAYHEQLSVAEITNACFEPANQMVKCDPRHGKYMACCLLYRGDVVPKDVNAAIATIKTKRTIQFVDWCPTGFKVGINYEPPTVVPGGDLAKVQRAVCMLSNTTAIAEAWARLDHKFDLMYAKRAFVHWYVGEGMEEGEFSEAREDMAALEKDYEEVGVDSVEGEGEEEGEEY
structure (smiles),measurement,setting,value
"CCc1cccc2cc(-c3cc(-c4cc(OC)c(OC)c(OC)c4)[nH]c(=O)c3C#N)c(Cl)nc12 [Compound 4c, 4-(2-Chloro-8-ethylquinolin-3-yl)-2-oxo-6-(3,4,5-trimethoxyphenyl)-1,2-dihydropyridine-3-carbonitrile]",cells population at G2 and M phases,MDA-MB-231 cells,22.84%
same,IC50,tubulin,17 ± 0.3 µM
same,β-tubulin mRNA levels (relative gene expression) vs non-treated cells,[1],notably reduced; also recorded: significantly suppressed; also recorded: markedly reduced
